Assays:
[1] = In vitro transfection of cells with eGFP-mRNA lipid nanoparticle (LNP preparation), fluorescence imaging and flow cytometry; type: cell-based, mouse; details: mouse, dc2.4 cells, 200 ng of mRNA per well, after 24 hours; read-out: Cell viability, %
Method in brief: (§1)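 Mouse bone marrow-derived DC2.4 dendritic cells seeded at 2 × 10^5 cells/well in DMEM with 10% FBS, transfected with eGFP-mRNA LNPs the next day at 37 °C, 5% CO2. After 24 hours, viability, eGFP-positive rate and mean fluorescence intensity read by fluorescence imaging and flow cytometry.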

DC2.4 cells = assay: as above; type: cell-based, mouse; details: eGFP positivity rate, DC2.4 cells, 200 ng of mRNA per well, after 24 hours
Method in brief: as §1

[2] = Size and polydispersity index (PDI) of the lipid nanoparticle by dynamic light scattering; type: physicochemical; details: LNP encapsulating eGFP mRNA, ionizable lipid/DOPE/cholesterol/DMG-PEG2000 50/10/48.25/1.25 mol%, N/P 12; for Particle size: in nm (unit assumed)
Method in brief: (§2)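 LNPs were made by microfluidic mixing of ionizable lipid/DOPE/cholesterol/DMG-PEG2000 (50/10/48.25/1.25 mol%) in ethanol with eGFP mRNA in 20 mM citrate pH 6.1, N/P 12, then ultrafiltered into DPBS and 0.2 µm filtered. Size and PDI by DLS at 173° backscatter; encapsulation by Ribogreen.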

[3] = Encapsulation efficiency of the lipid nanoparticle (eGFP mRNA) by Ribogreen method; type: physicochemical; details: LNP encapsulating eGFP mRNA, ionizable lipid/DOPE/cholesterol/DMG-PEG2000 50/10/48.25/1.25 mol%, N/P 12
Method in brief: as §2

| SMILES | viability at 24 h [1] [%] | Positive rate, % (DC2.4 cells) [%] | PDI [2] | Encapsulation rate, % [3] [%] | Particle size [2] |
| --- | --- | --- | --- | --- | --- |
| CCCCCC/C=C\COC(=O)CCCCCCCN(CCCO)CCCN(CCCCCCCC(=O)OC/C=C\CCCCCC)CCCCCCCC(=O)OC/C=C\CCCCCC [Example 19, Di((Z)-non-2-en-1-yl)8,8'-((3-((3-hydroxypropyl)(8-(((Z)-non-2-en-1-yl)oxo)-8-oxooctyl)amino)propyl)azanediyl)dioctanoate] | 95.6 | 97.44 | 0.26 | 92.54 |  |
| CC/C=C\COC(=O)CCCCCCCN(CCO)CCCN(CCCCCCCC(=O)OC/C=C\CC)CCCCCCCC(=O)OC/C=C\CC [Example 10, Di((Z)-pent-2-en-1-yl)8,8'-((3-((2-hydroxyethyl)(8-oxo-8-(((Z)-pent-2-en-1-yl)oxo)octyl)amino)propyl)azanediyl)dioctanoate] | 95 | 95.39 | 0.14 | 89.02 | 90.73 |
| CCCCCCCCCCCOC(=O)CCCCCCCN(CCCCCCCC(=O)OCCCCCCCCCCC)CCCN(CCCO)CCCN(CCCCCCCC(=O)OCCCCCCCCCCC)CCCCCCCC(=O)OCCCCCCCCCCC [Example 98, Tetraundecyl 8,8',8",8"-(((3-hydroxypropyl)azanediyl)di(propane-3,1-diyl))di(azanetriyl)tetraoctanoate] | 96.9 | 92.36 | 0.14 | 91.32 | 89.51 |
| CCCCCCCCCCCCOC(=O)CCCCCCCN(CCO)CCCN(CCCCCCCC(=O)OCCCCCCCCCCCC)CCCCCCCC(=O)OCCCCCCCCCCCC [Example 50, Didodecyl 8,8'-((3-((8-(dodecyloxy)-8-oxooctyl)(2-hydroxyethyl)amino)propyl)azanediyl)dioctanoate] | 90.4 | 99.74 | 0.20 | 99.63 | 76.74 |
| CCCCCCCCCCCCCOC(=O)CCCCCCN(CCCO)CCCN(CCCCCCC(=O)OCCCCCCCCCCCCC)CCCCCCC(=O)OCCCCCCCCCCCCC [Example 34] | 95 | 93.19 | 0.16 | 99.39 | 82.74 |
| CCCCCCCCCCCOC(=O)CCCN(CCO)CCCN(CCCC(=O)OCCCCCCCCCCC)C(=O)CCC(=O)OCCCCCCCCCCC [Example 109] | 89 | 71.17 | 0.33 | 79.70 |  |
| CCCCCCCCCCCCCCOC(=O)CCCCCCN(CCCCO)CCCN(CCCCCCC(=O)OCCCCCCCCCCCCCC)CCCCCCC(=O)OCCCCCCCCCCCCCC [Example 58, Ditetradecyl 7,7'-((3-((4-hydroxybutyl)(7-oxo-7-(tetradecyloxy)heptyl)amino)propyl)azanediyl)diheptanoate] | 63.2 | 87.44 | 0.16 | 99.17 | 79.13 |
| CCCCCCCCCCCOC(=O)CN(CCCCO)CCCN(CC(=O)OCCCCCCCCCCC)CC(=O)OCCCCCCCCCCC [Example 75, Diundecyl 2,2'-((3-((4-hydroxybutyl)(2-oxo-2-(undecyloxy)ethyl)amino)propyl)azanediyl)diacetate] | 90.3 | 91.29 | 60.95 | 99.22 | 99.22 |
| CCCCCCCCCCCOC(=O)CCCCCCCN(CCCO)CCCN(CCCCCCCC(=O)OCCCCCCCCCCC)CCCCCCCC(=O)OCCCCCCCCCCC [Example 18, Diundecyl 8,8'-((3-((3-hydroxypropyl)(8-oxo-8-(undecyloxy)octyl)amino)propyl)azanediyl)dioctanoate] | 90.6 | 96.79 | 0.25 | 88.82 |  |
| CCCCCCCCCCCOC(=O)CCCN(CCCO)CCCN(CCCC(=O)OCCCCCCCCCCC)CCCC(=O)OCCCCCCCCCCC [Example 64, Diundecyl 4,4'-((3-((3-hydroxypropyl)(4-oxo-4-(undecyloxy)butyl)amino)propyl)azanediyl)dibutanoate] | 64.6 | 99.18 | 0.19 | 98.93 | 90.58 |
| CCCCCCCCCCCOC(=O)CCCCN(CCO)CCCN(CCCCC(=O)OCCCCCCCCCCC)CCCCC(=O)OCCCCCCCCCCC [Example 107] | 92.9 | 92.10 | 0.13 | 95.47 |  |
| CCCCCCCCCCCOC(=O)CCCCCCN(CCCO)CCCN(CCCCCCC(=O)OCCCCCCCCCCC)CCCCCCC(=O)OCCCCCCCCCCC [Example 36] | 94.2 | 93.6 | 0.16 | 99.39 | 89.30 |
| CCCCCCCCCCCOC(=O)CCCCCCCCCCCN(CCO)CCCN(CCCCCCCCCCCC(=O)OCCCCCCCCCCC)CCCCCCCCCCCC(=O)OCCCCCCCCCCC [Example 23, Diundecyl 12,12'-((3-((2-hydroxyethyl)(12-oxo-12-(undecyloxy)dodecyl)amino)propyl)azanediyl)didodecanoate] | 87.5 | 92.1 | 0.26 | 92.58 |  |
| CCC/C=C\COC(=O)CCCCCCCN(CCO)CCCN(CCCCCCCC(=O)OC/C=C\CCC)CCCCCCCC(=O)OC/C=C\CCC [Example 17, Di((Z)-hexyl-2-en-1-yl)8,8'-((3-((8-(((Z)-hexyl-2-en-1-yl)oxo)-8-oxooctyl)(2-hydroxyethyl)amino)propyl)azanediyl)dioctanoate] | 71.1 | 95.88 | 0.26 | 90.04 |  |
| CCCCCCCCCCOC(=O)CCCN(CCCO)CCCCN(CCCC(=O)OCCCCCCCCCC)CCCC(=O)OCCCCCCCCCC [Example 86] | 93 | 94.18 | 0.13 | 94.50 | 88.62 |
| CCCCCCCCCCCCOC(=O)CCCCCN(CCCO)CCCN(CCCCCC(=O)OCCCCCCCCCCCC)CCCCCC(=O)OCCCCCCCCCCCC [Example 45, Didodecyl 6,6'-((3-((6-(dodecoxy)-6-oxohexyl)(3-hydroxypropyl)amino)propyl)azahexyl)dihexanoate] | 95 | 95.29 | 0.20 | 99.60 | 84.66 |
| CCCCCCCCCCOC(=O)CCCN(CCCO)CCCN(CCCC(=O)OCCCCCCCCCC)CCCC(=O)OCCCCCCCCCC [Example 113, Didecyl 4,4'-((3-((4-(decyloxy)-4-oxobutyl)(3-hydroxypropyl)amino)propyl)azetidinyl)dibutanoate] | 93.2 | 92.51 | 0.14 | 91.23 | 88.62 |
| CCCCCCCCCCCOC(=O)CCN(CCO)CCCN(CCC(=O)OCCCCCCCCCCC)CCC(=O)OCCCCCCCCCCC [Example 67, Diundecyl 3,3'-((3-((2-hydroxyethyl)(3-oxo-3-(undecyloxy)propyl)amino)propyl)azanediyl)dipropionate] | 95.8 | 98.32 | 0.20 | 66.08 | 86.08 |
| CCCCC/C=C\C/C=C\CCCCCCCCOC(=O)CCCCCCCN(CCCO)CCCN(CCCCCCCC(=O)OCCCCCCCC/C=C\C/C=C\CCCCC)CCCCCCCC(=O)OCCCCCCCC/C=C\C/C=C\CCCCC [Example 95] | 95.9 | 93.13 | 0.11 | 92.93 |  |
| CCCCCC/C=C\COC(=O)CCCCCCCN(CCO)CCCN(CCCCCCCC(=O)OC/C=C\CCCCCC)CCCCCCCC(=O)OC/C=C\CCCCCC [Example 6, Di((Z)-non-2-en-1-yl)8,8'-((3-((2-hydroxyethyl)(8-(((Z)-non-2-en-1-yl)oxo)-8-oxooctyl)amino)propyl)azanediyl)dioctanoate] | 80.5 | 85.29 | 0.13 | 92.30 |  |
| CCCCCCCCCCCCCOC(=O)CCCN(CCCO)CCCN(CCCC(=O)OCCCCCCCCCCCCC)CCCC(=O)OCCCCCCCCCCCCC [Example 63, Ditridecyl 4,4'-((3-((3-hydroxypropyl)(4-oxo-4-(tridecyloxy)butyl)amino)propyl)azanediyl)dibutanoate] | 63.4 | 92.85 | 0.15 | 97.68 | 84.74 |
| CCCCCCCCCCCCCCOC(=O)CCCCCCCN(CCCO)CCCN(CCCCCCCC(=O)OCCCCCCCCCCCCCC)CCCCCCCC(=O)OCCCCCCCCCCCCCC [Example 60, Ditetradecyl 8,8'-((3-((3-hydroxypropyl)(8-oxo-8-(tetradecyloxy)octyl)amino)propyl)azanediyl)dioctanoate] | 72.3 | 97.14 | 0.10 | 99.46 | 65.40 |

— patent publication EP4678629A1, “IONIZABLE LIPID MOLECULE, PREPARATION METHOD THEREFOR AND USE THEREOF” (Maxirna (Shanghai) Pharmaceutical Co., Ltd., priority 2023, dated 2024)
